The source of these data is patent publication US9896438B2, “2,2,2-trifluoroethyl-thiadiazines” (Hoffmann-La Roche Inc., priority 2014, dated 2018).

By IC50 is commonly meant the concentration at which inhibition is half-maximal. A high value points to a need for much substance.

The experiment deals with T1, BACE1 (Homo sapiens, UniProt P56817).
T1 construct: endogenous in cells; host or cells: HEK293 APP cells
The experiment in a line: Cellular Aβ-lowering assay (Abeta 40 AlphaLISA in HEK293 APP cells). As to conditions: 18-20 hrs incubation, Aβ 40 in culture supernatants by AlphaLISA. The experiment is classed as cell-based. As to the method:
Cellular Aβ-Lowering Assay:
The Abeta 40 AlphaLISA Assay can be used. The HEK293 APP cells were seeded in 96 well Microtiter plates in cell culture medium (Iscove's, plus 10% (v/v) fetal bovine serum, penicillin/streptomycin) to about 80% confluency and the compounds were added at a 3× concentration in ⅓ volume of culture medium (final DMSO concentration was kept at 1% v/v). After 18-20 hrs incubation at 37° C. and 5% CO2 in a humidified incubator, the culture supernatants were harvested for the determination of Aβ 40 concentrations using Perkin-Elmer Human Amyloid beta 1-40 (high specificity) Kit (Cat# AL275C).
In a Perkin-Elmer White Optiplate-384 (Cat#6007290), 2 ul culture supernatants were combined with 2 μl of a 10× AlphaLISA Anti-hAβAcceptor beads+Biotinylated Antibody Anti-Aβ 1-40 Mix (50 μg/mL/5 nM). After 1 hour room temperature incubation, 16 μl of a 1.25× preparation of Streptavidin (SA) Donor beads (25 μg/mL) were added and incubated for 30 minutes in the Dark. Light Emission at 615 nm was then recorded using En Vision-Alpha Reader. Levels of Aβ 40 in the culture supernatants were calculated as percentage of maximum signal (cells treated with 1% DMSO without inhibitor). The IC50 values were calculated using the Excel XLfit software.
For orientation: Alpha assays give light when donor and acceptor beads are brought close together.

SMILES strings stand for the structures. Structures can show the parent of a compound that is named as a salt.

T1 sequence (P56817 46-501): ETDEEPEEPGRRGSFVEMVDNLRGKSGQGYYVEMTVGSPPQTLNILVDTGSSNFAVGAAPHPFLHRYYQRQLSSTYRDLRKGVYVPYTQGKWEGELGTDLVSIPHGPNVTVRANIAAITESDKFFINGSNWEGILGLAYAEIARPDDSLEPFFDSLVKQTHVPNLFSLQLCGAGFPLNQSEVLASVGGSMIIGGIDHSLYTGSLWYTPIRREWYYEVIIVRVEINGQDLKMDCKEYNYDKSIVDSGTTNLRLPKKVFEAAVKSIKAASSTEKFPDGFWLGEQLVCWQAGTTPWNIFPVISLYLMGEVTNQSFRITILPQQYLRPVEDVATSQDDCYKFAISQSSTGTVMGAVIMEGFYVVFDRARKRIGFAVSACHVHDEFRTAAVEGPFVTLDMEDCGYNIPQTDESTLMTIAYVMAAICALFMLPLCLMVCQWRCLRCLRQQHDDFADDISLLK

With `Cc1cc(C#N)cnc1C(=O)Nc1ccc(F)c([C@]2(C)C[S@@](=O)(=NCC(F)(F)F)N(C)C(N)=N2)n1` [Example 3, N-[6-[(1R,5R)-3-amino-2,5-dimethyl-1-oxo-1-(2,2,2-trifluoroethylimino)-6H-1,2,4-thiadiazin-5-yl]-5-fluoro-2-pyridyl]-5-cyano-3-methyl-pyridine-2-carboxamide 2,2,2-trifluoroacetic Acid Salt], the IC50 is 0.991 nM.

`CN1C(N)=N[C@](C)(c2nc(NC(=O)c3ccc(C#N)cn3)ccc2F)C[S@@]1(=O)=NCC(F)(F)F` [Example 4, N-[6-[(1R,5R)-3-amino-2,5-dimethyl-1-oxo-1-(2,2,2-trifluoroethylimino)-6H-1,2,4-thiadiazin-5-yl]-5-fluoro-2-pyridyl]-5-cyano-pyridine-2-carboxamide 2,2,2-trifluoroacetic Acid Salt] showed a 50% inhibitory concentration (IC50) of 2.7 nM.

Turning to `Cc1cc(F)cnc1C(=O)Nc1ccc(F)c([C@]2(C)C[S@@](=O)(=NCC(F)(F)F)N(C)C(N)=N2)n1` [Example 5, N-[6-[(1R,5R)-3-amino-2,5-dimethyl-1-oxo-1-(2,2,2-trifluoroethylimino)-6H-1,2,4-thiadiazin-5-yl]-5-fluoropyridin-2-yl]-5-fluoro-3-methylpyridine-2-carboxamide 2,2,2-trifluoroacetic Acid Salt], the IC50 came out at 13.9 nM.

`CN1C(N)=N[C@](C)(c2nc(NC(=O)c3ccc(OCF)cn3)ccc2F)C[S@@]1(=O)=NCC(F)(F)F` [Example 6, N-[6-[(1R,5R)-3-amino-2,5-dimethyl-1-oxo-1-(2,2,2-trifluoroethylimino)-6H-1,2,4-thiadiazin-5-yl]-5-fluoropyridin-2-yl]-5-(fluoromethoxy)pyridine-2-carboxamide 2,2,2-trifluoroacetic Acid Salt] yielded an IC50 of 3.84 nM.

On to `CC#CCOc1cnc(C(=O)Nc2ccc(F)c([C@]3(C)C[S@@](=O)(=NCC(F)(F)F)N(C)C(N)=N3)n2)cn1` [Example 7, N-[6-[(1R,5R)-3-amino-2,5-dimethyl-1-oxo-1-(2,2,2-trifluoroethylimino)-6H-1,2,4-thiadiazin-5-yl]-5-fluoropyridin-2-yl]-5-but-2-ynoxypyrazine-2-carboxamide; 2,2,2-trifluoroacetic Acid], for which the IC50 is 0.737 nM.

The molecule `COc1cnc(C(=O)Nc2ccc(F)c([C@]3(C)C[S@@](=O)(=NCC(F)(F)F)N(C)C(N)=N3)n2)cn1` [Example 8, N-[6-[(1R,5R)-3-amino-2,5-dimethyl-1-oxo-1-(2,2,2-trifluoroethylimino)-6H-1,2,4-thiadiazin-5-yl]-5-fluoropyridin-2-yl]-5-methoxypyrazine-2-carboxamide 2,2,2-trifluoroacetic Acid Salt] returned an IC50 of 10.1 nM.

Molecule `CN1C(N)=N[C@](C)(c2nc(NC(=O)c3ccc(OCC(F)(F)F)cn3)ccc2F)C[S@@]1(=O)=NCC(F)(F)F` [Example 9, N-[6-[(1R,5R)-3-amino-2,5-dimethyl-1-oxo-1-(2,2,2-trifluoroethylimino)-6H-1,2,4-thiadiazin-5-yl]-5-fluoropyridin-2-yl]-5-(2,2,2-trifluoroethoxy)pyridine-2-carboxamide 2,2,2-trifluoroacetic Acid Salt] came in with an IC50 of 50.7 nM.

`CN=S1(=O)CC(C)(c2nc(NC(=O)c3ncc(C#N)cc3C)ccc2F)N=C(N)N1CC(F)(F)F` (stereo not drawn) [Example 13, N-[6-[3-amino-5-methyl-1-methylimino-1-oxo-2-(2,2,2-trifluoroethyl)-6H-1,2,4-thiadiazin-5-yl]-5-fluoropyridin-2-yl]-5-cyano-3-methylpyridine-2-carboxamide; 2,2,2-trifluoroacetic Acid] displayed an IC50 of 134 nM.

As to `CN=S1(=O)C[C@@](C)(c2nc(NC(=O)c3ncc(C#N)cc3C)ccc2F)N=C(N)N1CC(F)(F)F` (stereo partly drawn) [Example 15, N-[6-[(5R)-3-amino-5-methyl-1-methylimino-1-oxo-2-(2,2,2-trifluoroethyl)-6H-1,2,4-thiadiazin-5-yl]-5-fluoropyridin-2-yl]-5-cyano-3-methylpyridine-2-carboxamide; 2,2,2-trifluoroacetic acid], it took 0.986 nM to reach half-maximal inhibition (IC50).

On to `CN=S1(=O)C[C@@](C)(c2nc(NC(=O)c3ncc(C#N)cc3C)ccc2F)N=C(N)N1CC(F)(F)F` (stereo partly drawn) [Example 16, N-[6-[(5R)-3-amino-5-methyl-1-methylimino-1-oxo-2-(2,2,2-trifluoroethyl)-6H-1,2,4-thiadiazin-5-yl]-5-fluoropyridin-2-yl]-5-cyano-3-methylpyridine-2-carboxamide; 2,2,2-trifluoroacetic Acid], for which the IC50 is 0.593 nM.

Take `CN=S1(=O)C[C@@](C)(c2nc(NC(=O)c3ncc(C#N)cc3Cl)ccc2F)N=C(N)N1CC(F)(F)F` (stereo partly drawn) [Example 17, N-(6-((5R)-3-amino-5-methyl-1-(methylimino)-1-oxido-2-(2,2,2-trifluoroethyl)-5,6-dihydro-2H-1,2,4-thiadiazin-5-yl)-5-fluoropyridin-2-yl)-3-chloro-5-cyanopicolinamide]: half-maximal inhibition (IC50) required 0.292 nM.

For `CN=S1(=O)C[C@@](C)(c2nc(NC(=O)c3ncc(F)cc3C)ccc2F)N=C(N)N1CC(F)(F)F` (stereo partly drawn) [Example 18, N-[6-[(5R)-3-amino-5-methyl-1-methylimino-1-oxo-2-(2,2,2-trifluoroethyl)-6H-1,2,4-thiadiazin-5-yl]-5-fluoropyridin-2-yl]-5-fluoro-3-methylpyridine-2-carboxamide; 2,2,2-trifluoroacetic acid], inhibition was half-maximal at 74.5 nM (IC50).
